# Entries after “also recorded” stand apart in the source; their conditions may differ.
# Key:
# 5-HT2C receptor = conditions: cited from earlier work
# Method: (§1) The aims of the present studies were: to test whether lunasin would show an influence on the dopaminergic system after intranasal administration, and to examine the effect(s) of lunasin on serotonin and glutamatergic systems, which could play an essential role in antipsychoti ... || The binding assay was performed by Eurofins Cerep (France) according to Bryant et al., 1996 [15]. Briefly, the binding of lunasin to 5-HT2A and 5-HT2C receptors was estimated on its ability to displace the specific binding of [^125I]DOI on cell membrane suspensions of HEK-293 cells expressing human recombinant 5-HT2A and 5-HT2C receptors. The radioligand [^125I]DOI has high affinity for 5-HT2A (Kd: 0.3 nM) and 5-HT2C (Kd: 0.9 nM) receptors. Lunasin was tested at concentrations of 1, 10 and 100 µM. The results were expressed as a percent of radioligand specific binding (n = 2).
# 5-HT2A receptor = conditions: cited from earlier work
# Method: as §1
# [1] = tested on: PCP-induced hyperlocomotion in ICR mice; assay: Open field locomotor activity, phencyclidine-induced hyperlocomotion; assay type: in vivo, male albino ICR mice; conditions: PCP 5 mg/kg i.p.; p < 0.0001 vs control; n = 7–8
# hyper-locomotion = conditions: published data; cited from earlier work
# Method: The selected DOI dose in our behavioural studies was 3 mg/kg, which according to published data, corresponds to the dose range (0.625-5.0 mg/kg) that induces hyper-locomotion. […] These altered parameters ...
# [2] = tested on: DOI-induced hyperlocomotion in ICR mice; assay: Open field locomotor activity, DOI-induced hyperlocomotion; assay type: in vivo, male albino ICR mice; conditions: DOI 3 mg/kg i.p.; p = 0.0033 vs control; n = 7–8
# [3] = tested on: brain monoamine levels, DOI-treated mice; assay: Brain monoamines and metabolites, DOI-treated mice (UHPLC-TOF-MS); assay type: in vivo, male albino ICR mice; conditions: DOI 3 mg/kg i.p.
# [4] = tested on: amphetamine-induced hyperlocomotion in ICR mice; assay: Open field locomotor activity, amphetamine-induced hyperlocomotion; assay type: in vivo, male albino ICR mice; conditions: amphetamine 3 mg/kg i.p.; p = 0.0008 vs control; n = 7–8
# [5] = tested on: brain monoamine levels, amphetamine-treated mice; assay: Brain monoamines and metabolites, amphetamine-treated mice (UHPLC-TOF-MS); assay type: in vivo, male albino ICR mice; conditions: amphetamine 3 mg/kg i.p.
# [6] = radioligand affinity quoted in method, Eurofins Cerep, ref Bryant et al., 1996 [15]
# [7] = comparison for lunasin, abstract, source not printed there
smiles,measurement,setting,value
COc1cc(CC(C)N)c(OC)cc1I (centres unmarked) [[125I]DOI],Kd,5-HT2C receptor; [6],0.9 nM
same,Kd,5-HT2A receptor; [6],0.3 nM
"Cl.c1ccc(C2(N3CCCCC3)CCCCC2)cc1 [PCP, 1-(1-phenylcyclohexyl)piperidine hydrochloride, reference compound]",effect on locomotion versus control,[1],induced hyperlocomotion
"COc1cc(CC(C)N)c(OC)cc1I (centres unmarked) [DOI, 1-(2,5-dimethoxy-4-iodophenyl)-2-aminopropane, reference compound]",dose range that induces hyper-locomotion,hyper-locomotion,0.625 to 5.0 mg/kg
same,effect on locomotion versus control,[2],induced hyperactivity
same,brain 5-HIAA level,[3],up-regulated levels of serotonin and 5-HIAA; also recorded: considerable elevation of brain levels of serotonin and its metabolite 5-HIAA
same,brain dopamine concentration,[3],did not change dopamine brain concentrations; also recorded: did not change the dopamine concentration
same,brain serotonin level,[3],up-regulated levels of serotonin and 5-HIAA; also recorded: considerable elevation of brain levels of serotonin and its metabolite 5-HIAA
same,brain DOPAC concentration,[3]; p < 0.001,elevated; also recorded: increasing DOPAC levels
same,brain noradrenaline level,[3]; p < 0.05,decreased by DOI treatment; also recorded: lowered those of HVA and noradrenaline
same,brain HVA level,[3]; p = 0.0022,decreased by DOI treatment; also recorded: lowered those of HVA and noradrenaline
same,"receptor affinity, concentration range",5-HT2C receptor; [7],nM concentrations
same,"receptor affinity, concentration range",5-HT2A receptor; [7],nM concentrations
"C[C@H](N)Cc1ccccc1 [Amphetamine, d-amphetamine, reference compound]",increase in total walked distance versus control,[4],approximately 2 -fold
same,brain DOPAC concentration,[5],Neither lunasin per se nor amphetamine changed the DOPAC concentration
same,brain 5-HIAA level,[5]; p < 0.0001,increased brain serotonin and its metabolite 5-HIAA levels
same,brain dopamine level,[5]; p < 0.0001,markedly increased the dopamine level
same,brain noradrenaline level,[5]; p < 0.0001,augmented by amphetamine
same,brain serotonin level,[5]; p < 0.0001,increased brain serotonin and its metabolite 5-HIAA levels
same,brain HVA level,[5]; p = 0.0079,increased by amphetamine
